In ChEMBL document CHEMBL1201862, “PubChem BioAssay data set” (2004):
Activity calls are given as the source filed them.

Columns and labels:
[1] = biological target: Large T antigen (Simian virus 40, UniProt P03070); type: functional, Betapolyomavirus macacae;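 further: Confirmatory-stage PubChem screen for compounds that inhibit SV40 T antigen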
[2] = biological target: T1, Protein Rev (Human immunodeficiency virus type 1 group M subtype B (isolate WMJ22)(HIV-1), UniProt P05866); assay: HIV-1 Rev-RRE RNA binding disruptors, dose response, biochemical, protein-RNA interaction (AID 842); design: species or system Human immunodeficiency virus 1
T1 sequence (P05866 whole entry): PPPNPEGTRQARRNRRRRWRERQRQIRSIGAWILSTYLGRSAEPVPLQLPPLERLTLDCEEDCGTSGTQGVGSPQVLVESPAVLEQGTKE

[3] = Luminescence Cell-Based Dose Retest to Confirm Inhibitors of Cancer Stem Cells. [Related pubchem assays (depositor defined):AID2717, AID2721]; type: functional; details: Homo sapiens
[4] = biological target: T2, Aminopeptidase N (Plasmodium falciparum FcB1/Columbia, UniProt O96935); assay: P. falciparum M1AAP inhibitors, biochemical, fluorogenic H-Leu-NHMec substrate, 1536-well (AID 1445); design: species or system Plasmodium falciparum 3D7, 3D7
T2 sequence (O96935 whole entry): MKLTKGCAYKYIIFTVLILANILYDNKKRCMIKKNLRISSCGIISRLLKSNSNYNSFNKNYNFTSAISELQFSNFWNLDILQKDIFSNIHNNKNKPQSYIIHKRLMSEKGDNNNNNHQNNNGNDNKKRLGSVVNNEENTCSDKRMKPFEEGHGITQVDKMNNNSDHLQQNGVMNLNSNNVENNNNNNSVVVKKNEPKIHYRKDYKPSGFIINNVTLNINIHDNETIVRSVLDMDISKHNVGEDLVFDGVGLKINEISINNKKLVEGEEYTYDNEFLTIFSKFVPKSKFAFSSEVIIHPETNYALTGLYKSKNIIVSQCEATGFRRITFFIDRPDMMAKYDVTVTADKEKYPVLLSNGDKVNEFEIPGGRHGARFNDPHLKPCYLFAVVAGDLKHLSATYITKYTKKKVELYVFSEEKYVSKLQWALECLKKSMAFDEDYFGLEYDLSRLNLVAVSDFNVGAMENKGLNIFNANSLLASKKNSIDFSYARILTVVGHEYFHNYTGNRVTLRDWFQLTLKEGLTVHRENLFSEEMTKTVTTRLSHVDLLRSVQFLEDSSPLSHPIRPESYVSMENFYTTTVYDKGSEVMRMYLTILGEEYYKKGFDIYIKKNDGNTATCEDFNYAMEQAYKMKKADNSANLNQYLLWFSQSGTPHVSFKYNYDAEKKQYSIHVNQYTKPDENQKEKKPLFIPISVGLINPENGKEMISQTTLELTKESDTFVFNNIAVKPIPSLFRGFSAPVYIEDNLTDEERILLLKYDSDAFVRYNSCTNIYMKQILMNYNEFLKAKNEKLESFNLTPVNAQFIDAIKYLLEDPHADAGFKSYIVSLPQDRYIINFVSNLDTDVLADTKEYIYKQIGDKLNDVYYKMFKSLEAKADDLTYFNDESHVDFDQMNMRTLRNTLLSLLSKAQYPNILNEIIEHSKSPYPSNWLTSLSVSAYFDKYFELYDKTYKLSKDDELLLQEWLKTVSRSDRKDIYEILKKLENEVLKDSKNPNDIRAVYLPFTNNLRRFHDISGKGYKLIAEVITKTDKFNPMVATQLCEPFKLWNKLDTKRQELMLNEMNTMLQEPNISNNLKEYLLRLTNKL

[5] = biological target: T3, Insulin-degrading enzyme (Homo sapiens, UniProt P14735); assay: Dose Response: Fluorescence polarization-based cell-based high throughput dose response assay for inhibitors of insulin-degrading enzyme (IDE). [Related pubchem assays: 434962 (Primary screen (IDE inhibitors in singlicate)), 449730 (Counterscreen (Cytotoxicity in triplicate)), 435028 (Confirmation (IDE inhibitors in triplicate)), 434984 (Summary …; type: functional
T3 sequence (P14735 whole entry): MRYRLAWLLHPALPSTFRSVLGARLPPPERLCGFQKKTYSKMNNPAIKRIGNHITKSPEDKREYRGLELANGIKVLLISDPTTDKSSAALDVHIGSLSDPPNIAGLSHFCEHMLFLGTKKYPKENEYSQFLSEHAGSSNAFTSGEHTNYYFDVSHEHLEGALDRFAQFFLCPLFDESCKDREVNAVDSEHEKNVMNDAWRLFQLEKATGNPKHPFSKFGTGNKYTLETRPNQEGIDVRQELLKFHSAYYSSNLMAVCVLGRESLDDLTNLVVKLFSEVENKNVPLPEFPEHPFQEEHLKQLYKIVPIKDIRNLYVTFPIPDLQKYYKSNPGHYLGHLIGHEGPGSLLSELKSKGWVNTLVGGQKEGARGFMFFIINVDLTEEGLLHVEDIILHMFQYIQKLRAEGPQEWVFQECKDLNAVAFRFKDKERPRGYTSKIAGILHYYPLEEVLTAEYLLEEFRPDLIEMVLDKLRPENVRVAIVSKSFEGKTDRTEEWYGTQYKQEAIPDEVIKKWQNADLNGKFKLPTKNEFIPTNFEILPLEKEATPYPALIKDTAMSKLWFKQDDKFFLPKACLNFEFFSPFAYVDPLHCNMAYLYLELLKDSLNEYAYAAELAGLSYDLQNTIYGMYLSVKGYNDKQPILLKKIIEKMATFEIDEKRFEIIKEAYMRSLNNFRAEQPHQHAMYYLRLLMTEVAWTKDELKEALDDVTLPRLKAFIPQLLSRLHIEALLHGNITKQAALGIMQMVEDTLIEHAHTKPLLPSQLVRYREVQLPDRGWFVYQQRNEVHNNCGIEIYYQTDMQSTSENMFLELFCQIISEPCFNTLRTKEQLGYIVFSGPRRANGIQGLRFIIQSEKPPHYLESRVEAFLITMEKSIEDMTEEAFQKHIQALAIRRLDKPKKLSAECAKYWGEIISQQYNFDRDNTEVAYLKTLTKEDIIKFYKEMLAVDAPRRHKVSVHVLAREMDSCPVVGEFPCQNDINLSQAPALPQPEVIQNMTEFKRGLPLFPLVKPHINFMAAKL

[6] = Counterscreen for IDE inhibitors: Luminescence-based cell-based high throughput dose response assay to identify compounds that are cytotoxic to HEK cells. [Related pubchem assays: 434962 (Primary screen (IDE inhibitors in singlicate)), 449730 (Counterscreen (Cytotoxicity in triplicate)), 435028 (Confirmation (IDE inhibitors in triplicate)) …; type: functional; details: HEK293
[7] = biological target: T4, Coagulation factor XII (Homo sapiens, UniProt P00748); assay: FXIIa inhibitor potency, concentration-response, biochemical (AID 716); type: functional
T4 sequence (P00748 whole entry): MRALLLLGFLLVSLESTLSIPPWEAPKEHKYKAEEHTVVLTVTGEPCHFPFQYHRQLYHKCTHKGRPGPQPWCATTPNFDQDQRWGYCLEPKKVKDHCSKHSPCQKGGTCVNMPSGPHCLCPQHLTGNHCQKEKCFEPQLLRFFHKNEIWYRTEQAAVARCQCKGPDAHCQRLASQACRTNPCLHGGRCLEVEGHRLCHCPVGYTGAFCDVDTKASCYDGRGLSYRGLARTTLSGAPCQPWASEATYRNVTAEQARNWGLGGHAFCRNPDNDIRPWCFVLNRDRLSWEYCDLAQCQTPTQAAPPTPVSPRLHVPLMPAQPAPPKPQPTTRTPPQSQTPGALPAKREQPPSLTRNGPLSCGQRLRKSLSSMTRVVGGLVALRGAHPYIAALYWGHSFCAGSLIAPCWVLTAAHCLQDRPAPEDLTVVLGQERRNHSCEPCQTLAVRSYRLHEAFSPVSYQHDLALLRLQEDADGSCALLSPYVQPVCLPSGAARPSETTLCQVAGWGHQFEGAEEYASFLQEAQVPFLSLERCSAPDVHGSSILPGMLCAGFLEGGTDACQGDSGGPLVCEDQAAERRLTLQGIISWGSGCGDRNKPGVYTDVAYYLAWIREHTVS

[8] = biological target: DNA dC->dU-editing enzyme APOBEC-3A (Homo sapiens, UniProt P31941); assay: Dose Response confirmation of small molecule APOBEC3A DNA Deaminase Inhibitors via a fluorescence-based single-stranded DNA deaminase assay. [Related pubchem assays (depositor defined):AID493011, AID493024]; type: functional
[9] = biological target: DNA dC->dU-editing enzyme APOBEC-3G (Homo sapiens, UniProt Q9HC16); type: functional;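 further: Dose-response counterscreen measuring inhibition of APOBEC3G DNA deaminase activity, run while confirming APOBEC3A inhibitors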
[10] = biological target: Eukaryotic translation initiation factor 4E (Mus musculus, UniProt P63073); assay: eIF4E–eIF4G protein interaction inhibitors, dose response, biochemical, TR-FRET (AID 855); type: functional;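 further: potency for disrupting eIF4E binding to eIF4GI seen as loss of FRET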
[11] = biological target: T5, Nucleotide-binding oligomerization domain-containing protein 1 (Homo sapiens, UniProt Q9Y239); assay: NOD1 signaling inhibitors, SAR follow-up, revised (AID 2333); type: functional
T5 sequence (Q9Y239 whole entry): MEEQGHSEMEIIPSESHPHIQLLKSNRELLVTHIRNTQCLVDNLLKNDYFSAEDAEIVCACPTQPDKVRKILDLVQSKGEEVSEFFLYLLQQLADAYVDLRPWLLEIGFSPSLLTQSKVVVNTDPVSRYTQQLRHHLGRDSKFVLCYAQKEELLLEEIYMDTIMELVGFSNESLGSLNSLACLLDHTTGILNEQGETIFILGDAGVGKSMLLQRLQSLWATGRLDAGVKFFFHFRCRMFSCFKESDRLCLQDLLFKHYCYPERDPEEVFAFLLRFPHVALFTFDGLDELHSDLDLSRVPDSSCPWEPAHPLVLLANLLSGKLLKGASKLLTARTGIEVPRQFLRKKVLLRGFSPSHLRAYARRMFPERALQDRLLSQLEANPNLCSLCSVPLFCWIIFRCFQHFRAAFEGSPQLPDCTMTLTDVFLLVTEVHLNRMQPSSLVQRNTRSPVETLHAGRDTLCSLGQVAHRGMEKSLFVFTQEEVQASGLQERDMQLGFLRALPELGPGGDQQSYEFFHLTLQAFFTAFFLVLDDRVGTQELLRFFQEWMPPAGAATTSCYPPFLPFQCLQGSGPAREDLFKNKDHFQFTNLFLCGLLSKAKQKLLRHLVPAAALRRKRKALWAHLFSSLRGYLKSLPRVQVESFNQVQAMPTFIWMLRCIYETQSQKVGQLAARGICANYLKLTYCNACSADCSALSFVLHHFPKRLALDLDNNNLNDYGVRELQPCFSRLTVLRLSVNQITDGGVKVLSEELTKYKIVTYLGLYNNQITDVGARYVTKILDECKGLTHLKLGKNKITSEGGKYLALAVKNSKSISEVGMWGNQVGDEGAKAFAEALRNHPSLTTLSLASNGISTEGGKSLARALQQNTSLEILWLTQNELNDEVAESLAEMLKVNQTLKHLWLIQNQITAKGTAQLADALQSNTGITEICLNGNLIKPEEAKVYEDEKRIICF

[12] = test system: HEK293; assay: NOD1 signaling inhibitors, primary screen, cell-based, luminescence, uHTS (AID 1578); type: functional; details: Homo sapiens
[13] = test system: HEK293; assay: cells; type: functional, cell-based; details: Homo sapiens
[14] = biological target: Tumor necrosis factor (Homo sapiens, UniProt P01375); assay: TNFa-triggered NF-kB activation inhibitors, SAR follow-up, cell-based, revised (AID 2337); type: functional
[15] = test system: HEK293; assay: cells; details: Homo sapiens
[16] = cytotoxicity in HEK-293T cells, dose response, cytotoxicity control for TCR NF-kB inhibitor project, luminescence, T-cell screen hits (AID 489026); type: functional, cell-based;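 further: cells exposed to compound about 14 hours before the viability readout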
[17] = test system: HEK293; assay: cells; type: functional, cell-based; details: Homo sapiens; remark: listed apart in the source
[18] = test system: HEK293; assay: NOD2 signaling inhibitors in MDP-stimulated cells, cell-based, uHTS, luminescence (AID 2001); type: functional; details: Homo sapiens
[19] = cytotoxicity in HEK-293T cells, dose response, cytotoxicity control for BCR NF-kB inhibitor project, luminescence, B-cell screen hits (AID 489021); type: functional, cell-based;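 further: HEK-293T cells carrying an NF-kB luciferase reporter; cells exposed to compound for about 14 hours before viability readout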
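Wherever AC50 is given: cells exposed to compound for roughly 70 hours or longer before luminescence read.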

Tumor necrosis factor, sequence (P01375 whole entry): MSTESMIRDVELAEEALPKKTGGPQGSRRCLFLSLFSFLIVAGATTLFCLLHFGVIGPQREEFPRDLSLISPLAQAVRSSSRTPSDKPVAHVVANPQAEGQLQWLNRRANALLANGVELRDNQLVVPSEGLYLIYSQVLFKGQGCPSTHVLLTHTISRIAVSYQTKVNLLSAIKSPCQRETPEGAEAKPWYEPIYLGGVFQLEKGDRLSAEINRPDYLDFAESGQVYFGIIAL
DNA dC->dU-editing enzyme APOBEC-3A, sequence (P31941 whole entry): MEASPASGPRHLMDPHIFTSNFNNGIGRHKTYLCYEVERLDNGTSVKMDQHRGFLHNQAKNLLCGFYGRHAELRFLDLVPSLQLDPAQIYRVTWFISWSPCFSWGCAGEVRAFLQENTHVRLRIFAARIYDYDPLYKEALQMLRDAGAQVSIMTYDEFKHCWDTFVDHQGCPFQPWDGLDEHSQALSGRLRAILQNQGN
DNA dC->dU-editing enzyme APOBEC-3G, sequence (Q9HC16 whole entry): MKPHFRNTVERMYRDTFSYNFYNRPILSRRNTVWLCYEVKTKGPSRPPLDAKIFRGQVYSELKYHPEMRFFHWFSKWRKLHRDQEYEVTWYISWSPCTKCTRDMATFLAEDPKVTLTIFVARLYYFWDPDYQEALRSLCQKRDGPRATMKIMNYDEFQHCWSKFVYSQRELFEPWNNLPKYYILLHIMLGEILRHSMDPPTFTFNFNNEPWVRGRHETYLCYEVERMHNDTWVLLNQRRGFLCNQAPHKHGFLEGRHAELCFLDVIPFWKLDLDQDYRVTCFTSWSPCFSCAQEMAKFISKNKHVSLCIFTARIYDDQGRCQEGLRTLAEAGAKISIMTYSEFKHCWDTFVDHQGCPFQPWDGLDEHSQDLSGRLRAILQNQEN
Eukaryotic translation initiation factor 4E, sequence (P63073 whole entry, the tested form may be a part): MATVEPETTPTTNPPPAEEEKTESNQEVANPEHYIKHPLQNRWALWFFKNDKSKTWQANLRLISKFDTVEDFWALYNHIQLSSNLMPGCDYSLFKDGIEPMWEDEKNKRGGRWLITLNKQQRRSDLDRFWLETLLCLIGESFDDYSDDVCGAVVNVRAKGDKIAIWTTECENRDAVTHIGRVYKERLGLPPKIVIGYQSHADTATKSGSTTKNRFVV
Large T antigen, sequence (P03070 whole entry): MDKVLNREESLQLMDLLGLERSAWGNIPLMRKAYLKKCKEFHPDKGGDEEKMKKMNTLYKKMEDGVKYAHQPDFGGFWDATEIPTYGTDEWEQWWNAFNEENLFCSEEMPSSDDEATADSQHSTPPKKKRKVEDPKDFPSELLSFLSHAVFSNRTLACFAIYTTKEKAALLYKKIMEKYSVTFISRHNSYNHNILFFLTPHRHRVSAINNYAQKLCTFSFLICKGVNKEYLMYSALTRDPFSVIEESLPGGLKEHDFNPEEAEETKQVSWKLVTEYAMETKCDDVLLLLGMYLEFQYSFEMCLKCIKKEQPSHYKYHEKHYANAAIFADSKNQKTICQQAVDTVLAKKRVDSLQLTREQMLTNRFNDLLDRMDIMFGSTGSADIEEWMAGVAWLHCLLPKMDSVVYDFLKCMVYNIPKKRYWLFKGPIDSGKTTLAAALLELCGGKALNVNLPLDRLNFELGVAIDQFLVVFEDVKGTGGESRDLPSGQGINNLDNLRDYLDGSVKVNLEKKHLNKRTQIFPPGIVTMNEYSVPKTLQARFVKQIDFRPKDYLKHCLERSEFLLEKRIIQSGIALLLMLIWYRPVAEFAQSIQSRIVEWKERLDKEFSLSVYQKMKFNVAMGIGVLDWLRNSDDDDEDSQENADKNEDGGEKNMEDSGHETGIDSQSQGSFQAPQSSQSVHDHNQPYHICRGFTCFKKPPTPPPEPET

CCOc1cc(-c2ccc(N)c(OCC)c2)ccc1N
IC50 [1]: 12.3 µM (active) | IC50 [2]: 2.47 µM (active)

NC(=O)c1sc(-c2ccsc2)cc1NS(=O)(=O)c1ccc(C(F)(F)F)cc1
AC50 [3]: 11.7 µM (active) | IC50 [4]: 22.1 µM (active)

O=S(=O)(c1ccc(SCc2cccc(Cl)c2)nc1)N1CCCC1
IC50 [5]: > 55.9 µM (not active) | IC50 [6]: 27.1 µM (not active)

CC(=O)c1cccc(NS(=O)(=O)c2c(C)noc2C)c1
IC50 [7]: > 50 µM (inactive)

COc1ccc(S(=O)(=O)N2CCC(C(=O)NCc3ccccc3)CC2)cc1OC
IC50 [4]: 68.4 µM (active)

COc1cc(C(N)=O)cc(Br)c1OC
IC50 [8]: 9.8 µM (active) | IC50 [9]: 12.2 µM (active)

NC(=O)c1ccc(NC(=O)c2ccccc2S(=O)(=O)c2ccccc2[N+](=O)[O-])cc1
IC50 [4]: 102 µM (active)

O=C(NCc1ccc2c(c1)OCO2)c1ccc2c(c1)OCCO2
IC50 [10]: 50 µM (inactive)

CC(=O)N1c2ccc(S(=O)(=O)N3CCC(C(=O)Nc4cccc(C)n4)CC3)cc2CC1C (stereo unspecified)
IC50 [11]: 4.8 µM (active) | EC50 [12]: 2.79 µM (active) | IC50 [13]: > 20 µM (inactive) | IC50 [14]: 6.02 µM (active) | IC50 [15]: > 20 µM (inactive) | IC50 [16]: > 80 µM (inactive) | IC50 [17]: 8.99 µM (active) | IC50 [18]: 12.4 µM (inactive)

CC(=O)c1cccc(OCC(=O)N2CCN(c3ccc(C(F)(F)F)cn3)CC2)c1
IC50 [5]: 19.2 µM (not active) | IC50 [6]: 19.4 µM (not active)

CN1CCN(C(=O)c2ccc3c(=O)n(Cc4ccc(Cl)cc4)c(=S)[nH]c3c2)CC1
IC50 [7]: > 50 µM (inactive)

CCc1sc(C(=O)Nc2cccc(-n3cnnn3)c2)cc1C
IC50 [5]: 17.3 µM (not active) | IC50 [6]: 20.7 µM (not active) | IC50 [19]: > 80 µM (inactive)

C=CCSc1nnc(Cc2cc(O)nc(O)n2)n1-c1cc(C)ccc1C
IC50 [7]: > 50 µM (inactive)

CC(C)(C)c1ccc(C(=O)ONC(=N)c2cccc([N+](=O)[O-])c2)cc1
IC50 [11]: > 20 µM (inactive) | IC50 [14]: > 20 µM (inactive)

CC1CCC(C(C)C)C(OCC(O)C[N+]2(C)CCCCC2)C1 (stereo unspecified)
IC50 [8]: 2.6 µM (active) | IC50 [9]: 3.66 µM (active)
